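How tested: cells in 96-well plates exposed to compound for 48 hours at five concentrations. Abbreviation: GI50, concentration required for 50% inhibition of growth. TGI is the concentration that stops growth completely.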
Tests used:
Assay in all cases: growth of human tumour cells (NCI), 48 h
MDA-MB-231 breast = tested on: MDA-MB-231 breast
PC-3 prostate = tested on: PC-3 prostate
HS 578T breast = tested on: HS 578T breast
KM12 colon = tested on: KM12 colon
A498 renal = tested on: A498 renal
MOLT-4 leukemia = tested on: MOLT-4 leukemia
UACC-257 melanoma = tested on: UACC-257 melanoma
NCI-H522 lung = tested on: NCI-H522 lung
HCT-116 colon = tested on: HCT-116 colon
HCC-2998 colon = tested on: HCC-2998 colon
CAKI-1 renal = tested on: CAKI-1 renal
786-0 renal = tested on: 786-0 renal
MALME-3M melanoma = tested on: MALME-3M melanoma
M14 melanoma = tested on: M14 melanoma
A549 NSCLC = tested on: A549 NSCLC
SK-MEL-28 melanoma = tested on: SK-MEL-28 melanoma
HT29 colon = tested on: HT29 colon
HL-60(TB) leukemia = tested on: HL-60(TB) leukemia
UACC-62 melanoma = tested on: UACC-62 melanoma
ACHN renal = tested on: ACHN renal
SK-OV-3 ovarian = tested on: SK-OV-3 ovarian
IGROV1 ovarian = tested on: IGROV1 ovarian
TK-10 renal = tested on: TK-10 renal
SNB-19 CNS = tested on: SNB-19 CNS
COLO 205 colon = tested on: COLO 205 colon
HOP-92 NSCLC = tested on: HOP-92 NSCLC
EKVX NSCLC = tested on: EKVX NSCLC
BT-549 breast = tested on: BT-549 breast
RXF 393 renal = tested on: RXF 393 renal
MDA-MB-435 = tested on: MDA-MB-435
U251 CNS = tested on: U251 CNS
OVCAR-8 ovarian = tested on: OVCAR-8 ovarian
HCT-15 colon = tested on: HCT-15 colon
SF-268 CNS = tested on: SF-268 CNS
OVCAR-3 ovarian = tested on: OVCAR-3 ovarian
SR leukemia = tested on: SR leukemia
T-47D breast = tested on: T-47D breast
DU-145 prostate = tested on: DU-145 prostate
NCI-H460 lung = tested on: NCI-H460 lung
SK-MEL-5 melanoma = tested on: SK-MEL-5 melanoma
UO-31 renal = tested on: UO-31 renal
NCI-H23 lung = tested on: NCI-H23 lung
HOP-62 NSCLC = tested on: HOP-62 NSCLC
OVCAR-4 ovarian = tested on: OVCAR-4 ovarian
SW-620 colon = tested on: SW-620 colon
SK-MEL-2 melanoma = tested on: SK-MEL-2 melanoma
RPMI-8226 leukemia = tested on: RPMI-8226 leukemia
SF-539 CNS = tested on: SF-539 CNS
LOX IMVI melanoma = tested on: LOX IMVI melanoma
SN12C renal = tested on: SN12C renal
NCI-H226 lung = tested on: NCI-H226 lung
OVCAR-5 ovarian = tested on: OVCAR-5 ovarian
K-562 leukemia = tested on: K-562 leukemia
NCI/ADR-RES ovarian = tested on: NCI/ADR-RES ovarian
CCRF-CEM leukemia = tested on: CCRF-CEM leukemia
SNB-75 CNS = tested on: SNB-75 CNS
SF-295 CNS = tested on: SF-295 CNS
MCF7 breast = tested on: MCF7 breast

SMILES: Cc1c2cnccc2c(C)c2c1c1cc(C#N)ccc1n2C
- GI50 (MDA-MB-231 breast): 237 nM
- TGI (MDA-MB-231 breast): 1100 nM
- GI50 (PC-3 prostate): 217 nM
- TGI (PC-3 prostate): 1110 nM
- GI50 (HS 578T breast): 241 nM
- TGI (HS 578T breast): 1300 nM
- GI50 (KM12 colon): 243 nM
- TGI (KM12 colon): 1980 nM
- GI50 (A498 renal): 110 nM
- TGI (A498 renal): 285 nM
- GI50 (MOLT-4 leukemia): 95.9 nM
- TGI (MOLT-4 leukemia): 1680 nM
- GI50 (UACC-257 melanoma): 207 nM
- TGI (UACC-257 melanoma): 788 nM
- GI50 (NCI-H522 lung): 167 nM
- TGI (NCI-H522 lung): 817 nM
- GI50 (HCT-116 colon): 43.4 nM
- TGI (HCT-116 colon): 593 nM
- GI50 (HCC-2998 colon): 293 nM
- TGI (HCC-2998 colon): 1550 nM
- GI50 (CAKI-1 renal): 92.9 nM
- TGI (CAKI-1 renal): 1340 nM
- GI50 (786-0 renal): 235 nM
- TGI (786-0 renal): 1300 nM
- GI50 (MALME-3M melanoma): 195 nM
- TGI (MALME-3M melanoma): 548 nM
- GI50 (M14 melanoma): 232 nM
- TGI (M14 melanoma): 654 nM
- GI50 (A549 NSCLC): 100 nM
- TGI (A549 NSCLC): 895 nM
- GI50 (SK-MEL-28 melanoma): 285 nM
- TGI (SK-MEL-28 melanoma): 737 nM
- GI50 (HT29 colon): 87.1 nM
- TGI (HT29 colon): 1050 nM
- GI50 (HL-60(TB) leukemia): 401 nM
- TGI (HL-60(TB) leukemia): 1770 nM
- GI50 (UACC-62 melanoma): 148 nM
- TGI (UACC-62 melanoma): 343 nM
- GI50 (ACHN renal): 45.7 nM
- TGI (ACHN renal): 456 nM
- GI50 (SK-OV-3 ovarian): 245 nM
- TGI (SK-OV-3 ovarian): 920 nM
- GI50 (IGROV1 ovarian): 140 nM
- TGI (IGROV1 ovarian): 1100 nM
- GI50 (TK-10 renal): 266 nM
- TGI (TK-10 renal): 1620 nM
- GI50 (SNB-19 CNS): 181 nM
- TGI (SNB-19 CNS): 1940 nM
- GI50 (COLO 205 colon): 180 nM
- TGI (COLO 205 colon): 1080 nM
- GI50 (HOP-92 NSCLC): 180 nM
- TGI (HOP-92 NSCLC): 708 nM
- GI50 (EKVX NSCLC): 219 nM
- TGI (EKVX NSCLC): 624 nM
- GI50 (BT-549 breast): 406 nM
- TGI (BT-549 breast): 1970 nM
- GI50 (RXF 393 renal): 128 nM
- TGI (RXF 393 renal): 393 nM
- GI50 (MDA-MB-435): 271 nM
- TGI (MDA-MB-435): 899 nM
- GI50 (U251 CNS): 204 nM
- TGI (U251 CNS): 1120 nM
- GI50 (OVCAR-8 ovarian): 103 nM
- TGI (OVCAR-8 ovarian): 1960 nM
- GI50 (HCT-15 colon): 96.6 nM
- TGI (HCT-15 colon): 850 nM
- GI50 (SF-268 CNS): 209 nM
- TGI (SF-268 CNS): 1590 nM
- GI50 (OVCAR-3 ovarian): 215 nM
- TGI (OVCAR-3 ovarian): 792 nM
- GI50 (SR leukemia): 58.8 nM
- TGI (SR leukemia): 3060 nM
- GI50 (T-47D breast): 303 nM
- GI50 (DU-145 prostate): 208 nM
- TGI (DU-145 prostate): 836 nM
- GI50 (NCI-H460 lung): 124 nM
- TGI (NCI-H460 lung): 427 nM
- GI50 (SK-MEL-5 melanoma): 224 nM
- TGI (SK-MEL-5 melanoma): 591 nM
- GI50 (UO-31 renal): 137 nM
- TGI (UO-31 renal): 869 nM
- GI50 (NCI-H23 lung): 172 nM
- TGI (NCI-H23 lung): 649 nM
- GI50 (HOP-62 NSCLC): 115 nM
- TGI (HOP-62 NSCLC): 1420 nM
- GI50 (OVCAR-4 ovarian): 245 nM
- TGI (OVCAR-4 ovarian): 988 nM
- GI50 (SW-620 colon): 69.5 nM
- TGI (SW-620 colon): 1170 nM
- GI50 (SK-MEL-2 melanoma): 256 nM
- TGI (SK-MEL-2 melanoma): 771 nM
- GI50 (RPMI-8226 leukemia): 202 nM
- TGI (RPMI-8226 leukemia): 907 nM
- GI50 (SF-539 CNS): 254 nM
- TGI (SF-539 CNS): 1140 nM
- GI50 (LOX IMVI melanoma): 115 nM
- TGI (LOX IMVI melanoma): 615 nM
- GI50 (SN12C renal): 149 nM
- TGI (SN12C renal): 1140 nM
- GI50 (NCI-H226 lung): 112 nM
- TGI (NCI-H226 lung): 379 nM
- GI50 (OVCAR-5 ovarian): 262 nM
- TGI (OVCAR-5 ovarian): 1470 nM
- GI50 (K-562 leukemia): 247 nM
- TGI (K-562 leukemia): 1330 nM
- GI50 (NCI/ADR-RES ovarian): 117 nM
- TGI (NCI/ADR-RES ovarian): 736 nM
- GI50 (CCRF-CEM leukemia): 249 nM
- TGI (CCRF-CEM leukemia): 2830 nM
- GI50 (SNB-75 CNS): 179 nM
- TGI (SNB-75 CNS): 966 nM
- GI50 (SF-295 CNS): 201 nM
- TGI (SF-295 CNS): 859 nM
- GI50 (MCF7 breast): 262 nM
- TGI (MCF7 breast): 1120 nM

Reference: PubChem BioAssay (NCI)
